Measurements from patent US20230017045A1, “PYRIDINE AND PYRIMIDINE CARBOXYLATE HERBICIDES AND METHODS OF USE THEREOF” (Dow AgroSciences LLC, priority 2017, published 2023).

What follows are molecules tested on test plant species (assay: Post-emergent herbicidal activity test (greenhouse, foliar spray, visual growth reduction)). Details: post-emergence, 336 h, ALOMY: blackgrass (Alopecurus myosuroides), 140 g ai/ha, 14 days after application, read-out: Visual Growth Reduction (%) 14 Days After Application, ALOMY.
Format: in vivo
Description: Post-emergent Test: Seeds or nutlets of the desired test plant species were planted in Sun Gro Metro-Mix® 360 planting mixture, which typically has a pH of 6.0 to 6.8 and an organic matter content of about 30 percent, in plastic pots with a surface area of 64 square centimeters. In some aspects, to ensure good germination and healthy plants, a fungicide treatment and/or other chemical or physical treatment was applied. The plants were grown for 7-21 d in a greenhouse with an approximate 15 h photoperiod which was maintained at 23-29° C. during the day and 22-28° C. during the night. Nutrients and water were added on a regular basis and supplemental lighting was provided with overhead metal halide 1000-Watt lamps as necessary. Plants were used for testing when they reached the first or second true leaf stage. A weighed amount, determined by the highest rate to be tested, of each test compound was placed in a 25 mL glass vial and was dissolved in 4 mL of a 97:3 v/v mixture of acetone and DMSO to obtain concentrated stock solutions. […] The concentrated stock solutions obtained were diluted with 20 mL of an aqueous mixture containing acetone, water, isopropyl alcohol, DMSO, […] crop oil concentrate, and X-77 surfactant in a 48.5:39:10:1.5:1.0:0.02 v/v ratio to obtain spray solutions containing the application rate. Compound requirements are based upon a 12 mL application volume at a rate of 187 liters per hectare (L/ha). Formulated compounds were applied to the plant material with an overhead Mandel track sprayer equipped with […] nozzles calibrated to deliver 187 L/ha over an application area of 0.64 square meters at a spray height of 18 inches (43 cm) above the average plant canopy height. Control plants were sprayed in the same manner with the solvent blank. The treated plants and control plants were placed in a greenhouse as described above and watered by subirrigation to prevent wash-off of the test compounds. After 14 d, the condition of the test plants as compared with that of the nontreated and control plants was determined visually and scored on a scale of 0 to 100 percent where 0 corresponds to no injury and 100 corresponds to complete control. In the reporting of the results, Table A: Percent Growth Reduction Conversion Table was used.

Question: `COC(=O)c1nc(-c2ccc(C(F)(F)F)c(Br)c2Cl)ccc1Cl` [F140, methyl 6-(3-bromo-2-chloro-4-(trifluoromethyl)phenyl)-3-chloropicolinate] was tested. Which pest or weed control at 140 g/ha did it give?
Answer: 0 to 29%

Question: `COC(=O)c1nc(-c2ccc(OC(F)(F)F)cc2Cl)ccc1Cl` [F58, Methyl 3-chloro-6-(2-chloro-4-(trifluoromethoxy)phenyl)picolinate] was tested. Which pest or weed control at 140 g/ha did it give?
Answer: 30 to 44%

Same assay, conditions: post-emergence, 336 h, AMARE: redroot pigweed (Amaranthus retroflexus), 140 g ai/ha, 14 days after application, read-out: Visual Growth Reduction (%) 14 Days After Application, AMARE

Question: Which pest or weed control at 140 g/ha does the source give for `COC(=O)c1nc(-c2ccc(C(F)(F)F)c(Br)c2Cl)ccc1Cl` [F140, methyl 6-(3-bromo-2-chloro-4-(trifluoromethyl)phenyl)-3-chloropicolinate] here?
Answer: 85 to 94%

Question: `COC(=O)c1nc(-c2ccc(OC(F)(F)F)cc2Cl)ccc1Cl` [F58, Methyl 3-chloro-6-(2-chloro-4-(trifluoromethoxy)phenyl)picolinate] was tested. Which pest or weed control at 140 g/ha did it give?
Answer: 95 to 100%

Same assay, conditions: post-emergence, 336 h, AVEFA: wild oat (Avena fatua), 140 g ai/ha, 14 days after application, read-out: Visual Growth Reduction (%) 14 Days After Application, AVEFA

Question: For `COC(=O)c1nc(-c2ccc(C(F)(F)F)c(Br)c2Cl)ccc1Cl` [F140, methyl 6-(3-bromo-2-chloro-4-(trifluoromethyl)phenyl)-3-chloropicolinate], which pest or weed control at 140 g/ha is on record?
Answer: 0 to 29%

Question: With `COC(=O)c1nc(-c2ccc(OC(F)(F)F)cc2Cl)ccc1Cl` [F58, Methyl 3-chloro-6-(2-chloro-4-(trifluoromethoxy)phenyl)picolinate] as the molecule, how does the pest or weed control at 140 g/ha read?
Answer: 45 to 59%

Same assay, conditions: post-emergence, 336 h, CHEAL: lambsquarters (Chenopodium album), 140 g ai/ha, 14 days after application, read-out: Visual Growth Reduction (%) 14 Days After Application, CHEAL

Question: How did the pest or weed control at 140 g/ha turn out when `COC(=O)c1nc(-c2ccc(C(F)(F)F)c(Br)c2Cl)ccc1Cl` [F140, methyl 6-(3-bromo-2-chloro-4-(trifluoromethyl)phenyl)-3-chloropicolinate] was run?
Answer: 85 to 94%

Question: Which pest or weed control at 140 g/ha does the source give for `COC(=O)c1nc(-c2ccc(OC(F)(F)F)cc2Cl)ccc1Cl` [F58, Methyl 3-chloro-6-(2-chloro-4-(trifluoromethoxy)phenyl)picolinate] here?
Answer: 60 to 74%

Same assay, conditions: post-emergence, 336 h, CIRAR: canada thistle (Cirsium arvense), 140 g ai/ha, 14 days after application, read-out: Visual Growth Reduction (%) 14 Days After Application, CIRAR

Question: How did the pest or weed control at 140 g/ha turn out when `COC(=O)c1nc(-c2ccc(C(F)(F)F)c(Br)c2Cl)ccc1Cl` [F140, methyl 6-(3-bromo-2-chloro-4-(trifluoromethyl)phenyl)-3-chloropicolinate] was run?
Answer: 45 to 59%

Question: Which pest or weed control at 140 g/ha does the source give for `COC(=O)c1nc(-c2ccc(OC(F)(F)F)cc2Cl)ccc1Cl` [F58, Methyl 3-chloro-6-(2-chloro-4-(trifluoromethoxy)phenyl)picolinate] here?
Answer: 95 to 100%

Same assay, conditions: post-emergence, 336 h, CYPES: yellow nutsedge (Cyperus esculentus), 140 g ai/ha, 14 days after application, read-out: Visual Growth Reduction (%) 14 Days After Application, CYPES

Question: For `COC(=O)c1nc(-c2ccc(C(F)(F)F)c(Br)c2Cl)ccc1Cl` [F140, methyl 6-(3-bromo-2-chloro-4-(trifluoromethyl)phenyl)-3-chloropicolinate], which pest or weed control at 140 g/ha is on record?
Answer: 0 to 29%

Question: With `COC(=O)c1nc(-c2ccc(OC(F)(F)F)cc2Cl)ccc1Cl` [F58, Methyl 3-chloro-6-(2-chloro-4-(trifluoromethoxy)phenyl)picolinate] as the molecule, how does the pest or weed control at 140 g/ha read?
Answer: 0 to 29%

Same assay, conditions: post-emergence, 336 h, DIGSA: crabgrass (Digitaria sanguinalis), 140 g ai/ha, 14 days after application, read-out: Visual Growth Reduction (%) 14 Days After Application, DIGSA

Question: `COC(=O)c1nc(-c2ccc(C(F)(F)F)c(Br)c2Cl)ccc1Cl` [F140, methyl 6-(3-bromo-2-chloro-4-(trifluoromethyl)phenyl)-3-chloropicolinate] was tested. Which pest or weed control at 140 g/ha did it give?
Answer: 85 to 94%

Question: With `COC(=O)c1nc(-c2ccc(OC(F)(F)F)cc2Cl)ccc1Cl` [F58, Methyl 3-chloro-6-(2-chloro-4-(trifluoromethoxy)phenyl)picolinate] as the molecule, how does the pest or weed control at 140 g/ha read?
Answer: 85 to 94%

Same assay, conditions: post-emergence, 336 h, ECHCG: barnyardgrass (Echinochloa crus-galli), 140 g ai/ha, 14 days after application, read-out: Visual Growth Reduction (%) 14 Days After Application, ECHCG

Question: For `COC(=O)c1nc(-c2ccc(C(F)(F)F)c(Br)c2Cl)ccc1Cl` [F140, methyl 6-(3-bromo-2-chloro-4-(trifluoromethyl)phenyl)-3-chloropicolinate], which pest or weed control at 140 g/ha is on record?
Answer: 0 to 29%

Question: With `COC(=O)c1nc(-c2ccc(OC(F)(F)F)cc2Cl)ccc1Cl` [F58, Methyl 3-chloro-6-(2-chloro-4-(trifluoromethoxy)phenyl)picolinate] as the molecule, how does the pest or weed control at 140 g/ha read?
Answer: 0 to 29%

Same assay, conditions: post-emergence, 336 h, IPOHE: ivy-leaf morning glory (Ipomoea hederacea), 140 g ai/ha, 14 days after application, read-out: Visual Growth Reduction (%) 14 Days After Application, IPOHE

Question: For `COC(=O)c1nc(-c2ccc(C(F)(F)F)c(Br)c2Cl)ccc1Cl` [F140, methyl 6-(3-bromo-2-chloro-4-(trifluoromethyl)phenyl)-3-chloropicolinate], which pest or weed control at 140 g/ha is on record?
Answer: 95 to 100%

Question: With `COC(=O)c1nc(-c2ccc(OC(F)(F)F)cc2Cl)ccc1Cl` [F58, Methyl 3-chloro-6-(2-chloro-4-(trifluoromethoxy)phenyl)picolinate] as the molecule, how does the pest or weed control at 140 g/ha read?
Answer: 95 to 100%

Same assay, conditions: post-emergence, 336 h, KCHSC: kochia (Bassia scoparia), 140 g ai/ha, 14 days after application, read-out: Visual Growth Reduction (%) 14 Days After Application, KCHSC

Question: For `COC(=O)c1nc(-c2ccc(C(F)(F)F)c(Br)c2Cl)ccc1Cl` [F140, methyl 6-(3-bromo-2-chloro-4-(trifluoromethyl)phenyl)-3-chloropicolinate], which pest or weed control at 140 g/ha is on record?
Answer: 0 to 29%

Question: With `COC(=O)c1nc(-c2ccc(OC(F)(F)F)cc2Cl)ccc1Cl` [F58, Methyl 3-chloro-6-(2-chloro-4-(trifluoromethoxy)phenyl)picolinate] as the molecule, how does the pest or weed control at 140 g/ha read?
Answer: 30 to 44%

Same assay, conditions: post-emergence, 336 h, ORYSA: rice (Oryza sativa), 140 g ai/ha, 14 days after application, read-out: Visual Growth Reduction (%) 14 Days After Application, ORYSA

Question: Which pest or weed control at 140 g/ha does the source give for `COC(=O)c1nc(-c2ccc(C(F)(F)F)c(Br)c2Cl)ccc1Cl` [F140, methyl 6-(3-bromo-2-chloro-4-(trifluoromethyl)phenyl)-3-chloropicolinate] here?
Answer: 0 to 29%

Question: How did the pest or weed control at 140 g/ha turn out when `COC(=O)c1nc(-c2ccc(OC(F)(F)F)cc2Cl)ccc1Cl` [F58, Methyl 3-chloro-6-(2-chloro-4-(trifluoromethoxy)phenyl)picolinate] was run?
Answer: 0 to 29%

Same assay, conditions: post-emergence, 336 h, SETFA: giant foxtail (Setaria faberi), 140 g ai/ha, 14 days after application, read-out: Visual Growth Reduction (%) 14 Days After Application, SETFA

Question: Which pest or weed control at 140 g/ha does the source give for `COC(=O)c1nc(-c2ccc(C(F)(F)F)c(Br)c2Cl)ccc1Cl` [F140, methyl 6-(3-bromo-2-chloro-4-(trifluoromethyl)phenyl)-3-chloropicolinate] here?
Answer: 75 to 84%

Question: How did the pest or weed control at 140 g/ha turn out when `COC(=O)c1nc(-c2ccc(OC(F)(F)F)cc2Cl)ccc1Cl` [F58, Methyl 3-chloro-6-(2-chloro-4-(trifluoromethoxy)phenyl)picolinate] was run?
Answer: 75 to 84%

Same assay, conditions: post-emergence, 336 h, SORVU: grain sorghum (Sorghum vulgare), 140 g ai/ha, 14 days after application, read-out: Visual Growth Reduction (%) 14 Days After Application, SORVU

Question: Which pest or weed control at 140 g/ha does the source give for `COC(=O)c1nc(-c2ccc(C(F)(F)F)c(Br)c2Cl)ccc1Cl` [F140, methyl 6-(3-bromo-2-chloro-4-(trifluoromethyl)phenyl)-3-chloropicolinate] here?
Answer: 85 to 94%

Question: How did the pest or weed control at 140 g/ha turn out when `COC(=O)c1nc(-c2ccc(OC(F)(F)F)cc2Cl)ccc1Cl` [F58, Methyl 3-chloro-6-(2-chloro-4-(trifluoromethoxy)phenyl)picolinate] was run?
Answer: 85 to 94%

Same assay, conditions: post-emergence, 336 h, STEME: common chickweed (Stellaria media), 140 g ai/ha, 14 days after application, read-out: Visual Growth Reduction (%) 14 Days After Application, STEME

Question: Which pest or weed control at 140 g/ha does the source give for `COC(=O)c1nc(-c2ccc(C(F)(F)F)c(Br)c2Cl)ccc1Cl` [F140, methyl 6-(3-bromo-2-chloro-4-(trifluoromethyl)phenyl)-3-chloropicolinate] here?
Answer: 0 to 29%

Same assay, conditions: post-emergence, 336 h, TRZAS: wheat, spring (Triticum aestivum), 140 g ai/ha, 14 days after application, read-out: Visual Growth Reduction (%) 14 Days After Application, TRZAS

Question: How did the pest or weed control at 140 g/ha turn out when `COC(=O)c1nc(-c2ccc(C(F)(F)F)c(Br)c2Cl)ccc1Cl` [F140, methyl 6-(3-bromo-2-chloro-4-(trifluoromethyl)phenyl)-3-chloropicolinate] was run?
Answer: 0 to 29%
